Test results published in ChEMBL document CHEMBL1921727, “Stereoselective synthesis of (RP)-8-substituted-N⁶-acylated and N⁶-alkylated adenosine-3',5'-cyclic phosphorothioic acids as cAMP antagonists” (Eur J Med Chem, 2011).
Activity calls are given as the source filed them. No cut-off for these calls is given here.

Key:
[1] = system: T-cell; assay: Antagonist activity at PKA in human CD3-positive T cells assessed as inhibition of cell proliferation after 72 hrs by [H]thymidine incorporation assay; type: functional, cell-based
[2] = system: T-cell; assay: Induction of PKA activation in human CD3-positive T cells assessed as increase of cell proliferation after 72 hrs by [H]thymidine incorporation assay; type: cell-based
[3] = Antagonist activity at PKA in human CD3-positive T cells assessed as inhibition of cell proliferation after 72 hrs by [H]thymidine incorporation assay relative to (RP)-8-Br-cAMPS; type: functional
[4] = Cytotoxicity against human CD3-positive T cells assessed as [H]thymidine incorporation after 72 hrs by beta scintillation counting; type: cell-based; details: t-cell
[5] = system: T-cell; assay: Induction of PKA activation in human CD3-positive T cells assessed as increase of cell proliferation after 72 hrs by [H]thymidine incorporation assay relative to (SP)-8-Br-cAMPS; type: cell-based

With `CNc1ncnc2c1nc(-c1ccco1)n2[C@@H]1O[C@@H]2COP(=O)([S-])O[C@H]2[C@H]1O.[Na+]` (stereo not given in full) the “Inhibition of cell proliferation (active/not active)” value (“Inhibition … (active/not active)” below) [1] was “Active”, the Activity [2] was “Active” and the Ratio [3] was 0.2. For the same molecule, the Activity [4] was “Non-toxic”.
With `CCCNc1ncnc2c1nc(-c1ccco1)n2[C@@H]1O[C@@H]2COP(=O)(S)O[C@H]2[C@H]1O` (stereo not given in full) the “Inhibition … (active/not active)” value [1] was “Active”, the Activity [2] was “Active” and the Ratio [3] was 0.24. The Activity [4] was “Non-toxic”.
In the case of `O=P1([S-])OC[C@H]2O[C@@H](n3c(-c4ccco4)nc4c(NCc5ccccc5)ncnc43)[C@H](O)[C@@H]2O1.[Na+]` (stereo not given in full), the “Inhibition … (active/not active)” value [1] is reported as “inactive”, the Activity [2] is reported as “inactive” and the Ratio [5] is reported as 0.99. The Activity [4] was “Non-toxic”.
With `CN(C)c1ncnc2c1nc(-c1ccco1)n2[C@@H]1O[C@@H]2COP(=O)([S-])O[C@H]2[C@H]1O.[Na+]` (stereo not given in full) the “Inhibition … (active/not active)” value [1] was “inactive”, the Activity [2] was “Active” and the Ratio [3] was 0.1. For the same molecule, the Activity [4] was “Non-toxic”.
With `CCCCNc1ncnc2c1nc(-c1ccco1)n2[C@@H]1O[C@@H]2COP(=O)(S)O[C@H]2[C@H]1O` (stereo not given in full) the “Inhibition … (active/not active)” value [1] was “Active”, the Activity [2] was “Active” and the Ratio [3] was 0.53. For the same molecule, the Activity [4] was “Non-toxic”.
